Source: the OPERA property sets (Mansouri et al. 2018)

logP	SMILES
1.98	CCNc1ccc(S(=O)(=O)c2ccc(N)cc2)cc1
2.13	COC(=O)c1ccc(S(=O)(=O)c2ccc(N)cc2)cc1
2.4	Cc1ccc(S(=O)(=O)c2ccc(N)cc2)cc1
0.38	Nc1ccc(S(=O)(=O)c2ccc(N)cc2N)cc1
1.76	Nc1ccc(S(=O)(=O)c2ccccc2)cc1
1.56	Nc1ccc(S(=O)(=O)c2ccccc2N)cc1
2.85	Nc1ccc(S(=O)(=O)c2ccc(Br)cc2)cc1
3.06	Cc1cc(C)c(S(=O)(=O)c2ccc(N)cc2)c(C)c1
1.03	COc1cc(OC)c(S(=O)(=O)c2ccc(N)cc2)c(OC)c1
1.67	CC(=O)c1ccc(S(=O)(=O)c2ccc(N)cc2)cc1
1.57	Nc1ccc(S(=O)(=O)c2ccc(O)cc2)cc1
3.12	Nc1ccc(S(=O)(=O)c2ccc(Cl)cc2Cl)cc1
2.04	Nc1ccc(S(=O)(=O)c2ccc([N+](=O)[O-])cc2)cc1
1.44	CCN(CC)C(=O)c1ccc(S(=O)(=O)c2ccc(N)cc2)cc1
0.9	NC(=O)c1ccc(S(=O)(=O)c2ccc(N)cc2)cc1
1.63	N#Cc1ccc(S(=O)(=O)c2ccc(N)cc2)cc1
2.71	Cc1ccc(S(=O)(=O)c2ccc(N)cc2)c(C)c1
3	CCN(CC)c1ccc(S(=O)(=O)c2ccc(N)cc2)cc1
1.99	CN(C)c1ccc(S(=O)(=O)c2ccc(N)cc2)cc1
1.84	Nc1ccc(S(=O)(=O)c2ccc([N+](=O)[O-])cc2[N+](=O)[O-])cc1
1.03	Nc1ccc(S(=O)(=O)c2cccc(N)c2)cc1
1.64	COc1ccc(S(=O)(=O)c2ccc(N)cc2)c(OC)c1
0.88	Nc1ccc(S(=O)(=O)c2ccc(NO)cc2)cc1
1.29	Nc1ccc(S(=O)(=O)c2ccc(O)cc2O)cc1
1.96	COc1ccc(S(=O)(=O)c2ccc(N)cc2)cc1
2.57	Nc1ccc(S(=O)(=O)c2ccc(Cl)cc2)cc1
